Our source for the target mRNA inhibition values is the OligoGym collection.

Several values for one entry are separate records, joined by “and”; a condition that tells them apart may be missing. Equal entries are not always repeated. After the bases stand the sugars from the 5' end (letter, count) and the backbone: PS all phosphorothioate, else s phosphorothioate and o phosphodiester by linkage. Methylation of C is not given here. e = 2'-O-(2-methoxyethyl) (MOE); k = constrained ethyl (cEt); d = 2'-deoxy (DNA)

In the series the target is IRF4. Conditions: ASO.

As to GAAGGCCTGAGTTACC (sugars k3 d10 k3, PS), where the note is “MM.1R, 1 µM”, the target mRNA inhibition came to 29%. On to GAAGGGAACAGATAGT (sugars k3 d10 k3, PS), for which the target mRNA inhibition (SK-MEL-28, 4 µM) was determined as 17%. As to “GAAGTTTACACTGGAT (sugars kkdddddddddekeke, PS)”, the target mRNA inhibition (MM.1R, 0.074 µM) was 14%; the target mRNA inhibition (MM.1R, 0.222 µM) turned out to be 26%; the target mRNA inhibition (MM.1R, 0.666 µM) was 50%; the target mRNA inhibition (MM.1R, 1 µM) worked out at 58%; the target mRNA inhibition (MM.1R, 2 µM) turned out to be 59%. As for “GAAGTTTACACTGGAT (sugars kkkdddddddddkeke, PS)”, for the setting “MM.1R, 1 µM”, the target mRNA inhibition turned out to be 49%.

Turning to GAAGTTTACTAACTGG (sugars k3 d10 k3, PS), the target mRNA inhibition (SK-MEL-28, 4 µM) came out at 57%. For GAATCTTGGCAGGGAG (sugars k3 d10 k3, PS), under “MM.1R, 1 µM”, the target mRNA inhibition was 0%. Same read-out and setting: the same measure for GAATTCCAAACCTTAA (sugars k3 d10 k3, PS): 4%.

For the sequence GAATTTACAGCATCTA (sugars k3 d10 k3, PS), for the setting “SK-MEL-28, 4 µM”, the target mRNA inhibition came out at 76%. The same measure, in the same setting: the same measure for GACAAGAACTGCTGTG (sugars k3 d10 k3, PS): 15%; for GACAATGTTGTATGAA (sugars k3 d10 k3, PS): 72%.

Consider “GACACTTTTAGAGAGG (sugars k2 d9 e3 k2, PS)”, for which, where the note is “MM.1R, 1 µM”, the target mRNA inhibition amounted to 25%.

Take “GACACTTTTAGAGAGG (sugars kddddddddddkekek, PS)”: the target mRNA inhibition (MM.1R, 1 µM) came to 23%. As to “GACACTTTTAGAGAGG (sugars kdddddddddkekeke, PS)”, the target mRNA inhibition (MM.1R, 1 µM) was 9%. On the same count and under the same terms, then “GACACTTTTAGAGAGG (sugars kkddddddddddkeke, PS)”, with 9%; and “GACACTTTTAGAGAGG (sugars kkdddddddddkdkdk, PS)”, with 14%; and “GACAGTGACTTGCATC (sugars kkdddddddddkekek, PS)”, with 5%.

In the case of GACATTGGTACGGGAT (sugars k3 d10 k3, PS), the target mRNA inhibition (SK-MEL-28, 4 µM) was 36%. Turning to GACCAACTGGAAAACC (sugars k3 d10 k3, PS), where the note is “SK-MEL-28, 4 µM”, the target mRNA inhibition turned out to be 56%.

As to GACCAATTTATGCCAT (sugars k3 d10 k3, PS), the target mRNA inhibition (SK-MEL-28, 4 µM) is 38%. Consider GACCCACACCAGGAAA (sugars k3 d10 k3, PS), for which the target mRNA inhibition (SK-MEL-28, 4 µM) came to 2%.

Turning to GACCTAACTAAATGTC (sugars k3 d10 k3, PS), the target mRNA inhibition (SK-MEL-28, 4 µM) was -18%. Still for that read-out and setting: then GACGGAGGCGGCAGAC (sugars k3 d10 k3, PS), with -43%; and GACTAACAGGGAGACT (sugars k3 d10 k3, PS), with -9%. On to GACTCCATGAGGTTTT (sugars k3 d10 k3, PS), for which the target mRNA inhibition is 14% and 10% and 1% (SK-MEL-28, 0.185 µM); 70% (SK-MEL-28, 4 µM); 58% and 55% and 77% (SK-MEL-28, 5 µM); 76% and 78% and 87% (SK-MEL-28, 15 µM). On to GACTCGGAGCTGAGGG (sugars k3 d10 k3, PS), for which, where the note is “SK-MEL-28, 4 µM”, the target mRNA inhibition came to 23%. The same measure, in the same setting: the same measure for GACTTAAGCTAAACTC (sugars k3 d10 k3, PS): 58%. Consider GACTTATTTGTGGCTC (sugars k3 d10 k3, PS), for which the target mRNA inhibition (MM.1R, 1 µM) stood at 20%. Take GAGAAAACCCCCCTCT (sugars k3 d10 k3, PS): under “SK-MEL-28, 4 µM”, the target mRNA inhibition turned out to be 17%.

For GAGAAACGAGCCAGTG (sugars k3 d10 k3, PS), under “SK-MEL-28, 4 µM”, the target mRNA inhibition stood at 39%.

Turning to GAGAAGCATATTCCAA (sugars k3 d10 k3, PS), the target mRNA inhibition (SK-MEL-28, 4 µM) came to 57%. Same read-out and setting: then GAGACCTACAAAATGC (sugars k3 d10 k3, PS), with 11%. On to GAGAGACGAAAACAGC (sugars k3 d10 k3, PS), for which the target mRNA inhibition (MM.1R, 1 µM) came to 5%. In the case of GAGCAAACCCTGCACT (sugars k3 d10 k3, PS), for the setting “SK-MEL-28, 4 µM”, the target mRNA inhibition is -16%. Still for that read-out and setting: then GAGCAAAGCAAGTGTC (sugars k3 d10 k3, PS), with 42%. On the same count and under the same terms, then GAGCAATGAACGGAAG (sugars k3 d10 k3, PS), with 72%; and GAGCACTGCATGAAAG (sugars k3 d10 k3, PS), with 51%; and GAGCAGTAAACGCAAG (sugars k3 d10 k3, PS), with 54%. Still for that read-out and setting: the same measure for GAGCATCAACAAAGCC (sugars k3 d10 k3, PS): 58%. In the case of GAGCATCCGCTTGGAG (sugars k3 d10 k3, PS), where the note is “SK-MEL-28, 4 µM”, the target mRNA inhibition was determined as 31%.

For GAGCCAGAGCAGTAAA (sugars k3 d10 k3, PS), the target mRNA inhibition (MM.1R, 1 µM) is -2%. Regarding GAGCTGTGATGAGCTT (sugars k4 d8 k4, PS), the target mRNA inhibition (SK-MEL-28, 4 µM) came to 5%. Take GAGGAAGCCGTTCCTT (sugars k3 d10 k3, PS): under “SK-MEL-28, 4 µM”, the target mRNA inhibition turned out to be 51%. In the case of GAGGAAGTCCCCTTCC (sugars k3 d10 k3, PS), where the note is “MM.1R, 1 µM”, the target mRNA inhibition was 4%. For GAGGAATGGCGGATAG (sugars k3 d10 k3, PS), where the note is “SK-MEL-28, 4 µM”, the target mRNA inhibition is 31%. The same measure, in the same setting: the same measure for GAGGAGGAGGACTTAT (sugars k3 d10 k3, PS): 51%; for GAGGGTCAAAAAGATG (sugars k3 d10 k3, PS): 33%; for GAGTCACCTGGAATCT (sugars k3 d10 k3, PS): 43%.
